Converted amounts (≈) assume the structure as drawn. Each block holds one compound with its values, some of them ahead of it. The source made the active and inactive calls. The rule behind the calls is not given here.
How the values were obtained:
[1] = tested on: CHO; assay: (§1) Cytotoxicity against CHO cells assessed as inhibition of cell growth at 10 uM incubated overnight by MTS assay reltive to control; type: toxicity, cell-based, Cricetulus griseus; conditions: chinese hamster, cho, 10 µM
[2] = biological target: T1, Leukotriene B4 receptor 2 (Mus musculus, UniProt Q9JJL9); assay: Agonist activity at mouse BLT2 expressed in CHO cells assessed as induction of calcium accumulation; type: functional, cell-based
T1 sequence (Q9JJL9 whole entry): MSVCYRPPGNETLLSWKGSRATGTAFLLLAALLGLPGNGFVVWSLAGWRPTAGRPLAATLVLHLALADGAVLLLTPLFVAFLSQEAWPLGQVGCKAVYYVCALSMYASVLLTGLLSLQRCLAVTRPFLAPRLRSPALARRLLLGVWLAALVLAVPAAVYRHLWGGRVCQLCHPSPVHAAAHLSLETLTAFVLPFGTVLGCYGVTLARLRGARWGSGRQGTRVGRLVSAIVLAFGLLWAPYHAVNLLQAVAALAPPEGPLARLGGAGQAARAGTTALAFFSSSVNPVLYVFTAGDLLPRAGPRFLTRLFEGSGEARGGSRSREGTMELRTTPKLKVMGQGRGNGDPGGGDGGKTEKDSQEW

[3] = biological target: T2, Leukotriene B4 receptor 2 (Mus musculus) (UniProt Q9JJL9); assay: Displacement of 3[H]LTB4 from mouse BLT2 by competitive binding assay; conditions: filed as agonist
T2 sequence (whole entry): T1 sequence (Q9JJL9 whole entry)

[4] = as §1; type: toxicity, cell-based, Cricetulus griseus; conditions: chinese hamster, CHO cells, read-out: Activity
[5] = Metabolic stability in mouse liver microsomes assessed as parent compound remaining measured after 30 mins in absence of NADPH; type: ADME, Microsome; conditions: read-out: Stability
[6] = AUC infinity in rat at 20 mg/kg, po administered as solution; type: ADME, organism-based; conditions: in vivo
[7] = Metabolic stability in human liver microsomes assessed as parent compound remaining measured after 30 mins in presence of […]; type: ADME, Microsome; conditions: read-out: Stability
[8] = Metabolic stability in mouse liver microsomes assessed as parent compound remaining measured after 30 mins in presence of […]; type: ADME, Microsome; conditions: read-out: Stability
[9] = Oral bioavailability in rat at 20 mg/kg administered as solution; type: ADME, organism-based; conditions: in vivo
[10] = tested on: CHO; assay: Inhibition of Akt phosphorylation (unknown origin) expressed in CHO cells harbouring BLT2 by Western blot analysis; type: cell-based; conditions: Homo sapiens
[11] = Oral bioavailability in rat at 20 mg/kg administered as suspension; type: ADME, organism-based; conditions: in vivo
[12] = Clearance in rat at 2 mg/kg, iv; type: ADME, organism-based; conditions: in vivo
[13] = Metabolic stability in human liver microsomes assessed as parent compound remaining measured after 30 mins in presence of NADPH; type: ADME, Microsome; conditions: read-out: Stability
[14] = AUC infinity in rat at 20 mg/kg, po administered as suspension; type: ADME, organism-based; conditions: in vivo
[15] = Tmax in rat at 20 mg/kg, po administered as suspension; type: ADME, organism-based; conditions: in vivo
[16] = Half life in rat at 2 mg/kg, iv; type: ADME, organism-based; conditions: in vivo
[17] = Tmax in rat at 20 mg/kg, po administered as solution; type: ADME, organism-based; conditions: in vivo
[18] = Metabolic stability in human liver microsomes assessed as parent compound remaining measured after 30 mins in absence of […]; type: ADME, Microsome; conditions: read-out: Stability
[19] = tested on: Mus musculus; assay: Anti-asthmatic activity against OVA/LPS induced BALB/c mouse model assessed as decrease in bronchoalveolar lavage fluid (BALF) IL-5 level at 20 mg/kg, ip by ELISA method relative to control; type: functional; parameters: scale not given: the % may be the effect or the level left
[20] = tested on: Mus musculus; assay: Anti-asthmatic activity against OVA/LPS induced BALB/c mouse model assessed as reduction in bronchial hyper-response at 10 mg/kg, ip for one hr before every challenge on day 14 to 16 and measured after 17 days relative to control; type: functional; parameters: scale not given: the % may be the effect or the level left; conditions: time 17 day
[21] = Cmax in rat at 20 mg/kg, po administered as suspension; type: ADME, organism-based; conditions: in vivo
[22] = Metabolic stability in mouse liver microsomes assessed as parent compound remaining measured after 30 mins in presence of NADPH; type: ADME, Microsome; conditions: read-out: Stability
[23] = Apparent volume of distribution in rat at 2 mg/kg, iv; type: ADME, organism-based; conditions: in vivo, read-out: Vd(app)
[24] = tested on: Mus musculus; assay: Anti-asthmatic activity against OVA/LPS induced BALB/c mouse model assessed as decrease in bronchoalveolar lavage fluid (BALF) IL-4 level at 20 mg/kg, ip by ELISA method relative to control; type: functional; parameters: scale not given: the % may be the effect or the level left
[25] = biological target: T3, Leukotriene B4 receptor 2 (Homo sapiens, UniProt Q9NPC1); assay: Displacement of 3H-LTB4 from human BLT2 expressed in CHO cell membrane assessed as inhibition constant incubated for 60 mins by liquid scintillation counter analysis
T3 sequence (Q9NPC1 whole entry): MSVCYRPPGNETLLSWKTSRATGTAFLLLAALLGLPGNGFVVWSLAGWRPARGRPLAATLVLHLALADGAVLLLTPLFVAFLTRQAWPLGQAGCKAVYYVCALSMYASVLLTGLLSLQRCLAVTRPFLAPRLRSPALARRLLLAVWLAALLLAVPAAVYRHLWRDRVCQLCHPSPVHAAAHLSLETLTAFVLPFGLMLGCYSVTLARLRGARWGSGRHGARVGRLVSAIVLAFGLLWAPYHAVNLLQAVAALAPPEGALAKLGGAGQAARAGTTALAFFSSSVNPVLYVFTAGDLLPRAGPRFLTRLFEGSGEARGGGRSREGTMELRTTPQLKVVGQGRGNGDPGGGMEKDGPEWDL

[26] = Metabolic stability in mouse liver microsomes assessed as parent compound remaining measured after 30 mins in absence of […]; type: ADME, Microsome; conditions: read-out: Stability
[27] = Cmax in rat at 20 mg/kg, po administered as solution; type: ADME, organism-based; conditions: in vivo
[28] = AUC infinity in rat at 2 mg/kg, iv; type: ADME, organism-based; conditions: in vivo
[29] = tested on: Mus musculus; assay: Anti-asthmatic activity against OVA/LPS induced BALB/c mouse model assessed as decrease in bronchoalveolar lavage fluid (BALF) IL-4 level at 10 mg/kg, ip by ELISA method relative to control; type: functional; parameters: scale not given: the % may be the effect or the level left
[30] = tested on: Mus musculus; assay: Anti-asthmatic activity against OVA/LPS induced BALB/c mouse model assessed as decrease in bronchoalveolar lavage fluid (BALF) IL-13 level at 20 mg/kg, ip by ELISA method relative to control; type: functional; parameters: scale not given: the % may be the effect or the level left
[31] = Solubility of the compound in deionized water; type: physicochemical; conditions: buffer
[32] = tested on: Mus musculus; assay: Anti-asthmatic activity against OVA/LPS induced BALB/c mouse model assessed as decrease in bronchoalveolar lavage fluid (BALF) IL-13 level at 10 mg/kg, ip by ELISA method relative to control; type: functional; parameters: scale not given: the % may be the effect or the level left
[33] = biological target: Leukotriene B4 receptor 1 (Homo sapiens) (UniProt Q15722); assay: Antagonist activity at human BLT1 expressed in CHO cells assessed as inhibition of LTB4 induced cell migration at 10 uM measured after 3 hrs by chemotaxis assay; type: cell-based
Sequence of Leukotriene B4 receptor 1 (Homo sapiens) (Q15722 whole entry): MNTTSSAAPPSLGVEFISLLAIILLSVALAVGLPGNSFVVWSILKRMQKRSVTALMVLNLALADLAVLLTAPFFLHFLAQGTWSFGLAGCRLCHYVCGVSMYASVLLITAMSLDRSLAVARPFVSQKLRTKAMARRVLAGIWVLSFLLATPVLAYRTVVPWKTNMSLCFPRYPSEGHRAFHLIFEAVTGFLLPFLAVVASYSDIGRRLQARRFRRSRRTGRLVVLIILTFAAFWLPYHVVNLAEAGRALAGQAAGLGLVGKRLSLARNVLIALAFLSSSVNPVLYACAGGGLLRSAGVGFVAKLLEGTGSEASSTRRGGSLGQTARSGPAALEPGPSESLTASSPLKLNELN

[34] = tested on: Mus musculus; assay: Anti-asthmatic activity against OVA/LPS induced BALB/c mouse model assessed as decrease in bronchoalveolar lavage fluid (BALF) IL-5 level at 10 mg/kg, ip by ELISA method relative to control; type: functional; parameters: scale not given: the % may be the effect or the level left
[35] = Metabolic stability in human liver microsomes assessed as parent compound remaining measured after 30 mins in absence of NADPH; type: ADME, Microsome; conditions: read-out: Stability

SMILES: CCCCC(=O)N(Cc1ccc(-c2ccc(C(=O)O)cc2)cc1)c1ccccc1
Activity [1]: Non-Toxic

SMILES: CCCCC(=O)N(Cc1ccc(-c2ccc(OC)cc2)cc1)c1ccccc1
Activity [1]: Non-Toxic

SMILES: CCCCC(=O)N(Cc1ccc(-c2ccc(O)nc2)cc1)c1cccc(F)c1
Activity [1]: Non-Toxic

SMILES: CCCCC(=O)N(Cc1ccc(-c2ccc(O)cc2)cc1)c1ccccc1
Activity [1]: Non-Toxic

EC50 [2]: 20 nM | Activity [3]: 5 nM
SMILES: CCCCC(=O)N(Cc1ccc(-c2ccccc2C(=O)O)cc1)c1ccccc1

SMILES: CCCCC(=O)N(Cc1ccc(-c2ccc(C(=O)N3CCN(C(C)C)CC3)cc2)cc1)c1ccccc1
Activity [1]: Non-Toxic

SMILES: CCCCC(=O)N(Cc1ccc(-c2ccc(C(=O)O)cc2)cc1)c1cccc(F)c1
Activity [1]: Non-Toxic

SMILES: CCCCC(=O)N(Cc1ccc(-c2ccc(C(=O)O)cc2)cc1)c1ccc(F)cc1
Activity [1]: Non-Toxic

SMILES: CCCCC(=O)N(Cc1ccc(-c2ccc(OC)cc2)cc1)c1cccc(C(F)(F)F)c1
Activity [1]: Non-Toxic

SMILES: CCCCC(=O)N(Cc1ccc(-c2ccc(C(=O)NCC)cc2)cc1)c1ccccc1
Activity [1]: Non-Toxic

SMILES: CCCCC(=O)N(Cc1ccc(-c2ccc(C(=O)NCC(=O)O)cc2)cc1)c1ccccc1
Activity [1]: Non-Toxic

SMILES: CCCCC(=O)N(Cc1ccc(-c2ccc(O/C=C/C(=O)O)cc2)cc1)c1cccc(F)c1
Activity [1]: Non-Toxic

SMILES: CCCCC(=O)N(Cc1ccc(-c2ccc(OC)cc2)cc1)c1cccc(F)c1
inhibition at 10 µM [4]: 7%

remaining at 0.5 h [5]: 88.3% | AUC(0-inf) [6]: 2200 ng·h/mL | remaining at 0.5 h [7]: 94% | remaining at 0.5 h [8]: 91.7% | bioavailability [9]: 35% | bioavailability [11]: 24% | clearance [12]: 54 mL/min/kg | remaining at 0.5 h [13]: 74.5% | AUC(0-inf) [14]: 1500 ng·h/mL | Tmax [15]: 0.9 h | half-life [16]: 1.4 h | Tmax [17]: 1 h | remaining at 0.5 h [18]: 98.8% | Cmax [21]: 700 ng/mL | remaining at 0.5 h [22]: 67.8% | Vd [23]: 4.2 L/kg | Ki [25]: 132 nM | remaining at 0.5 h [26]: 92.9% | Cmax [27]: 1100 ng/mL | AUC(0-inf) [28]: 600 ng·h/mL | solubility [31]: 0.033 µg/mL (≈ 0.0758 µM) | Activity [33]: inactive | remaining at 0.5 h [35]: 98.1%
SMILES: CCCCC(=O)N(Cc1ccc(-c2ccc(OCC(=O)O)cc2)cc1)c1cccc(F)c1
Activity [1]: Non-Toxic | inhibition [10]: Active | Activity [19]: 46% | Activity [20]: 59% | Activity [24]: 35% | Activity [29]: 25% | Activity [30]: 38% | Activity [32]: 19% | Activity [34]: 33%

SMILES: CCCCC(=O)N(Cc1ccc(-c2ccc(OCC(=O)O)cc2)cc1)c1cccc(C(F)(F)F)c1
Activity [1]: Non-Toxic
